Test results from the kinase profiling compilation of Christmann-Franck et al. (2016).

Key:
Test in all cases: KINOMEscan competition binding
Conditions in all cases: compound 0.5 µM
MAPK3 (human) = MAPK3 (human) (UniProt P27361)
BTK (human) = BTK (human) (UniProt Q06187)
TNNI3K (human) = TNNI3K (human) (UniProt Q59H18)
SYK (human) = SYK (human) (UniProt P43405)
MAP2K3 (human) = MAP2K3 (human) (UniProt P46734)
MKNK2 (human) = MKNK2 (human) (UniProt Q9HBH9)
BRSK1 (human) = BRSK1 (human) (UniProt Q8TDC3)
[1] = tested on: FLT3 (human), P36888 [D835H]
[2] = tested on: KIT (human), P10721 [L576P]
FGFR1 (human) = FGFR1 (human) (UniProt P11362)
CDKL5 (human) = CDKL5 (human) (UniProt O76039)
GRK4 (human) = GRK4 (human) (UniProt P32298)
EPHA3 (human) = EPHA3 (human) (UniProt P29320)
RET (human) = RET (human) (UniProt P07949)
STK17B (human) = STK17B (human) (UniProt O94768)
ULK3 (human) = ULK3 (human) (UniProt Q6PHR2)
CDKL1 (human) = CDKL1 (human) (UniProt Q00532)
[3] = tested on: RET (human), P07949 [M918T]
DYRK2 (human) = DYRK2 (human) (UniProt Q92630)
RPS6KA3 KD1 (human) = RPS6KA3 KD1 (human) (UniProt P51812)
RAF1 (human) = RAF1 (human) (UniProt P04049)
ACVR1 (human) = ACVR1 (human) (UniProt Q04771)
RIOK1 (human) = RIOK1 (human) (UniProt Q9BRS2)
CDC42BPB (human) = CDC42BPB (human) (UniProt Q9Y5S2)
MAP3K5 (human) = MAP3K5 (human) (UniProt Q99683)
AURKA (human) = AURKA (human) (UniProt O14965)
RIOK2 (human) = RIOK2 (human) (UniProt Q9BVS4)
HUNK (human) = HUNK (human) (UniProt P57058)
MAP4K3 (human) = MAP4K3 (human) (UniProt Q8IVH8)
KIT (human) = KIT (human) (UniProt P10721)
PAK3 (human) = PAK3 (human) (UniProt O75914)
GAK (human) = GAK (human) (UniProt O14976)
[4] = tested on: RET (human), P07949 [V804L]
[5] = tested on: FLT3 (human), P36888 [R834Q]
MAP3K4 (human) = MAP3K4 (human) (UniProt Q9Y6R4)
CDK18 (human) = CDK18 (human) (UniProt Q07002)
CSNK1G3 (human) = CSNK1G3 (human) (UniProt Q9Y6M4)
MYO3B (human) = MYO3B (human) (UniProt Q8WXR4)
PIP4K2C (human) = PIP4K2C (human) (UniProt Q8TBX8)
FGFR4 (human) = FGFR4 (human) (UniProt P22455)
MAP3K13 (human) = MAP3K13 (human) (UniProt O43283)
STK16 (human) = STK16 (human) (UniProt O75716)

HUNK (human), sequence (P57058 whole entry, looked up): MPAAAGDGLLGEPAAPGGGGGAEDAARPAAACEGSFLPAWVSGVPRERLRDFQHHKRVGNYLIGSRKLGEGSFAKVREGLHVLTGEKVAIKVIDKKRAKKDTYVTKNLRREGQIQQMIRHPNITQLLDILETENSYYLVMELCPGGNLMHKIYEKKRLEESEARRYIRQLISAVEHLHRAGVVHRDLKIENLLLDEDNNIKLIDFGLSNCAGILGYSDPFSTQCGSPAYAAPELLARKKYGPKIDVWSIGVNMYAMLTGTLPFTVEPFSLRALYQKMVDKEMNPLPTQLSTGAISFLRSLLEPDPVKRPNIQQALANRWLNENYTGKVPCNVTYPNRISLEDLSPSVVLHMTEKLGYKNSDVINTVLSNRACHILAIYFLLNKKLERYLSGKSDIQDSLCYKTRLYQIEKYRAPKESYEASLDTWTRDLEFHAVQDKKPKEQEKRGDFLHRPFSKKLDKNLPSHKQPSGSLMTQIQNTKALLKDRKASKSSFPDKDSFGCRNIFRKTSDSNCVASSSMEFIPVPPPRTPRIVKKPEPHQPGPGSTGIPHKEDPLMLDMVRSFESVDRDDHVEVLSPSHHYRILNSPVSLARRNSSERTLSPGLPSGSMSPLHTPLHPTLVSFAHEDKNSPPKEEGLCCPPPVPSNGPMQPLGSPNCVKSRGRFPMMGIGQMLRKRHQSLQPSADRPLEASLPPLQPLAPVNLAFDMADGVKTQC
KIT (human), P10721 [L576P], sequence (P10721 whole entry L576P, looked up): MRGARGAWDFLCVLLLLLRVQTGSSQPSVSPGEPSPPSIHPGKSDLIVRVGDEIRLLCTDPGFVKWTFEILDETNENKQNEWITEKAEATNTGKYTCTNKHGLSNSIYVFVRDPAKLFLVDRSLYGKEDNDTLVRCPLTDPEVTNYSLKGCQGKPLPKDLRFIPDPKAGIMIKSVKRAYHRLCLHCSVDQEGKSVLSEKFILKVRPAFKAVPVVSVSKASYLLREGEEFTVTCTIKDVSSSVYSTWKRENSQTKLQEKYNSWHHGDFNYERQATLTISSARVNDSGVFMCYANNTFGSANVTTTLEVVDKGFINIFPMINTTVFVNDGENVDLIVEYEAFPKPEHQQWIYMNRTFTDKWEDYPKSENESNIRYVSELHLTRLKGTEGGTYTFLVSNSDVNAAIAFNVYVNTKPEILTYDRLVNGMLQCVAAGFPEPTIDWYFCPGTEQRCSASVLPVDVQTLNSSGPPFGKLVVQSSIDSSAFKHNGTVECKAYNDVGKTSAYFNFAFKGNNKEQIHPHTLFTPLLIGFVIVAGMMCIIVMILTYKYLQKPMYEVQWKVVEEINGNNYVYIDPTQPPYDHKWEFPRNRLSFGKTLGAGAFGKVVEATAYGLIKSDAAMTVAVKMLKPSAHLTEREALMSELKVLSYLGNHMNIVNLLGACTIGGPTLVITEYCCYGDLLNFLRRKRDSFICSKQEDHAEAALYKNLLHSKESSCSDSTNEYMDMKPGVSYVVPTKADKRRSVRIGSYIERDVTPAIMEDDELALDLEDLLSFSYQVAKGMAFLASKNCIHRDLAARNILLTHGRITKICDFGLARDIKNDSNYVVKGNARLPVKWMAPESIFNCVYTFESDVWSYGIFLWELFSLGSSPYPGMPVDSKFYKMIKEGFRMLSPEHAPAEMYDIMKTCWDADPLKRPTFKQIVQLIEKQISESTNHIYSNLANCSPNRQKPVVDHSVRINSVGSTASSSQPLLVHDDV
BRSK1 (human), sequence (Q8TDC3 whole entry, looked up): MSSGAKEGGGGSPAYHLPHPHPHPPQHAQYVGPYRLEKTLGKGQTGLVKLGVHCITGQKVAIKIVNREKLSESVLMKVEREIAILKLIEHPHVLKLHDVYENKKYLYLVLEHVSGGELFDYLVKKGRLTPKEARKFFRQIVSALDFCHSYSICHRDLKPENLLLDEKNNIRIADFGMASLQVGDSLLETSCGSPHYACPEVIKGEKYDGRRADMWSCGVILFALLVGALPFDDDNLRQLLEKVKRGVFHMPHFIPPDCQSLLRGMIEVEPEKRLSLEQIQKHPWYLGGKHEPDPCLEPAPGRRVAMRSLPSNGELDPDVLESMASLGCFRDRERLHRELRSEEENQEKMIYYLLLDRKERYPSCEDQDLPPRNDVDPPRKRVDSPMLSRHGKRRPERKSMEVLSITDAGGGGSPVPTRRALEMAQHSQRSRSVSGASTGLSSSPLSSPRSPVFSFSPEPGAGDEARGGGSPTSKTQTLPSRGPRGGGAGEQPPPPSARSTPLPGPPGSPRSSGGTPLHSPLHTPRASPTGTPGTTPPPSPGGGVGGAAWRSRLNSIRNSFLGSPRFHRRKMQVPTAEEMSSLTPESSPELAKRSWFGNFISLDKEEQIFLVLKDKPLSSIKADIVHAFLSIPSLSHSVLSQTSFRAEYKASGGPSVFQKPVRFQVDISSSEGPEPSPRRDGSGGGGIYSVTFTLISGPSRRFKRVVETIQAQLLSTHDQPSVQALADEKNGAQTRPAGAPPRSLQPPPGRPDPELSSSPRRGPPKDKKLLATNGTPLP
MYO3B (human), sequence (Q8WXR4 whole entry, looked up): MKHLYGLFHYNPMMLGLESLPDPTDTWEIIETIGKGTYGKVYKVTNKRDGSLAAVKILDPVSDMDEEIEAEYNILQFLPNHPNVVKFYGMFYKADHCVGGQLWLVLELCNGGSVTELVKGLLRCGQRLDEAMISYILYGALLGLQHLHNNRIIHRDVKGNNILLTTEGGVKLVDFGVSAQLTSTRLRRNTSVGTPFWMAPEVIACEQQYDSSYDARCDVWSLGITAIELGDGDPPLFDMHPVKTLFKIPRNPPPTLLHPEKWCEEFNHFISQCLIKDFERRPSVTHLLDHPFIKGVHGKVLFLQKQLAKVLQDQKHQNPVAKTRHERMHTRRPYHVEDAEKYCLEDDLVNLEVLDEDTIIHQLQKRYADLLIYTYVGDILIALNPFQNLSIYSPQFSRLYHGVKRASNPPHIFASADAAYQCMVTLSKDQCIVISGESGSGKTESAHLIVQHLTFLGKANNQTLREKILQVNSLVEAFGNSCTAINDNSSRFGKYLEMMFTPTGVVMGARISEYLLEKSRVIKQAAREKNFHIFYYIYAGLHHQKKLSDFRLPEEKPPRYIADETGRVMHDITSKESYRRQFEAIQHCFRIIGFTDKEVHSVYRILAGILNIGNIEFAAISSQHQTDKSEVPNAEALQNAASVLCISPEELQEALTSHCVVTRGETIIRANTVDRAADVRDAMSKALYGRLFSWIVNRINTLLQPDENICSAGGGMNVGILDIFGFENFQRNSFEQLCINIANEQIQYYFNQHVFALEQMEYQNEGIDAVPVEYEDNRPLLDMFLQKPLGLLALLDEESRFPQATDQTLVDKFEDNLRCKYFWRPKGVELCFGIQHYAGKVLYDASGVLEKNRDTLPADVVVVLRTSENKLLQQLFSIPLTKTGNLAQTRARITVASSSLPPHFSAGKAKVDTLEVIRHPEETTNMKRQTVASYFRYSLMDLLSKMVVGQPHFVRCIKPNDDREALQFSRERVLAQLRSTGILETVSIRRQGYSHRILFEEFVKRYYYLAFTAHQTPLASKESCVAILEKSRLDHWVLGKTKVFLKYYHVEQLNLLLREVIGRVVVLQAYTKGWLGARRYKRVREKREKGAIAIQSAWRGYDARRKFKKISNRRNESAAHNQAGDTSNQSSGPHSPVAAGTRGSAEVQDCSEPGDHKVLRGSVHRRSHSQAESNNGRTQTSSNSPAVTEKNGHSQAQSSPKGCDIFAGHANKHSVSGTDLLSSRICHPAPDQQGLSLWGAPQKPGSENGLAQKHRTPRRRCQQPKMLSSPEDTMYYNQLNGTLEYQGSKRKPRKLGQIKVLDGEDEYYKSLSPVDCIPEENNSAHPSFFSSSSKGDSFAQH
KIT (human), sequence (P10721 whole entry, looked up): as the sequence (P10721 whole entry L576P, looked up) above, with P576L counted along it
CDKL1 (human), sequence (Q00532 whole entry, looked up): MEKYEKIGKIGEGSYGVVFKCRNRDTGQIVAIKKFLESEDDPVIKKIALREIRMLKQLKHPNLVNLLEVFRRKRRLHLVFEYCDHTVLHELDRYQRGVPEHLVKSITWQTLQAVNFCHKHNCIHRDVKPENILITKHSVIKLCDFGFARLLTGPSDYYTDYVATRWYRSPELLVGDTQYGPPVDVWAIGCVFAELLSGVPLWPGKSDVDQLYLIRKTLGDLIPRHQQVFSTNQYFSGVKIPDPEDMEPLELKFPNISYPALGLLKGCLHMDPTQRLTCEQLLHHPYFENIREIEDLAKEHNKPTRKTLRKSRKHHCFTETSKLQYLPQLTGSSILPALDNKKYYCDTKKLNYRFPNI
FGFR4 (human), sequence (P22455 whole entry, looked up): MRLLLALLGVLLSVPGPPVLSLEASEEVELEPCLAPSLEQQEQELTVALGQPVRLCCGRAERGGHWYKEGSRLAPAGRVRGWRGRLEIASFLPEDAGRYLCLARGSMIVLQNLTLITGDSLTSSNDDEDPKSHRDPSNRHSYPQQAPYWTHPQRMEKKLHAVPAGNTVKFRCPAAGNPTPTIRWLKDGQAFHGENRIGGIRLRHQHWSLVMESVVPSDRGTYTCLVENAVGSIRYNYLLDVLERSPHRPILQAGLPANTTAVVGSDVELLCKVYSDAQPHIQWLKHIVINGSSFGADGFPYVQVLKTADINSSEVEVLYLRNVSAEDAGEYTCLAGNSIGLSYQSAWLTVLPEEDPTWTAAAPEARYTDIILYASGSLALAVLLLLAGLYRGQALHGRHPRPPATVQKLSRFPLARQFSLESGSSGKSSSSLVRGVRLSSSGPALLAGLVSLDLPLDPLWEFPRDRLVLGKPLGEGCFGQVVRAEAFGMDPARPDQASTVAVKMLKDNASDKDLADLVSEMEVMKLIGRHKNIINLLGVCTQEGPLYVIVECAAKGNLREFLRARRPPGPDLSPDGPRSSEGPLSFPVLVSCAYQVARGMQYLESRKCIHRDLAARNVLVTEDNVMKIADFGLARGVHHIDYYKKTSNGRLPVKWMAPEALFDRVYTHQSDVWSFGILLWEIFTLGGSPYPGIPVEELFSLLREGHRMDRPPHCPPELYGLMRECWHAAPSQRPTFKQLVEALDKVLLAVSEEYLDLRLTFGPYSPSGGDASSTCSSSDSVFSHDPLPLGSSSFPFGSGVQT

In the case of `Cn1c2ccccc2c2c3c(c4c5ccccc5n(CCC#N)c4c21)CNC3=O`, the kinase still bound, per cent of control (MAPK3 (human)) is reported as 96%, the kinase still bound, per cent of control (BTK (human)) is reported as 83% and the kinase still bound, per cent of control (TNNI3K (human)) is reported as 100%. It also gave a kinase still bound, per cent of control (SYK (human)) of 2.4%, a kinase still bound, per cent of control (MAP2K3 (human)) of 5% and a kinase still bound, per cent of control (MKNK2 (human)) of 11%. For the same compound, the kinase still bound, per cent of control (BRSK1 (human)) was 51%, the kinase still bound, per cent of control [1] was 2.6% and the kinase still bound, per cent of control [2] was 46%. It also gave a kinase still bound, per cent of control (FGFR1 (human)) of 74%, a kinase still bound, per cent of control (CDKL5 (human)) of 10% and a kinase still bound, per cent of control (GRK4 (human)) of 3%. For the same compound, the kinase still bound, per cent of control (EPHA3 (human)) was 53%, the kinase still bound, per cent of control (RET (human)) was 0.6% and the kinase still bound, per cent of control (STK17B (human)) was 100%. For the same compound, the kinase still bound, per cent of control (ULK3 (human)) was 15%, the kinase still bound, per cent of control (CDKL1 (human)) was 81% and the kinase still bound, per cent of control [3] was 0.15%. It also gave a kinase still bound, per cent of control (DYRK2 (human)) of 37%, a kinase still bound, per cent of control (RPS6KA3 KD1 (human)) of 25% and a kinase still bound, per cent of control (RAF1 (human)) of 100%. The kinase still bound, per cent of control (ACVR1 (human)) was 21%, the kinase still bound, per cent of control (RIOK1 (human)) was 0.6% and the kinase still bound, per cent of control (CDC42BPB (human)) was 100%. The kinase still bound, per cent of control (MAP3K5 (human)) was 56%, the kinase still bound, per cent of control (AURKA (human)) was 74% and the kinase still bound, per cent of control (RIOK2 (human)) was 64%. The kinase still bound, per cent of control (HUNK (human)) was 87%, the kinase still bound, per cent of control (MAP4K3 (human)) was 6% and the kinase still bound, per cent of control (KIT (human)) was 81%. It also gave a kinase still bound, per cent of control (PAK3 (human)) of 70%, a kinase still bound, per cent of control (GAK (human)) of 2% and a kinase still bound, per cent of control [4] of 0.1%. It also gave a kinase still bound, per cent of control [5] of 12%, a kinase still bound, per cent of control (MAP3K4 (human)) of 99% and a kinase still bound, per cent of control (CDK18 (human)) of 91%. For the same compound, the kinase still bound, per cent of control (CSNK1G3 (human)) was 84%, the kinase still bound, per cent of control (MYO3B (human)) was 100% and the kinase still bound, per cent of control (PIP4K2C (human)) was 75%. For the same compound, the kinase still bound, per cent of control (FGFR4 (human)) was 100%, the kinase still bound, per cent of control (MAP3K13 (human)) was 33% and the kinase still bound, per cent of control (STK16 (human)) was 84%.
